Reference: patent US9572882B2, “Compositions and methods for improving cardiovascular function” (RiboCor, INC., priority 2000, dated 2017)
“Also recorded” adds a separate entry of the source. Like-named read-outs stand apart in the source and are kept apart here.

Key:
[1] = system: subject with borderline blood pressure; test: Blood pressure in one subject with borderline hypertension given ribose; assay type: in vivo, human
Text: As shown in Example 1, treatment with ribose improves diastolic cardiac function. Since hypertension is accompanied by left ventricular dysfunction, it is expected that the administration of ribose to patients experiencing hypertension with result in a benefit. One subject has been tested. Their blood pressure has been tested at borderline values of 130/90. Following daily administration of ribose at 5-10 grams per day, their blood pressure was lowered to as low as 108/78.

[2] = system: patients with chronic coronary artery disease and chronic heart failure; test: Semi-upright bicycle exercise test in the crossover study; assay type: in vivo, human; settings: beginning vs end of the treatment period
Text: A double-blinded, randomized, crossover clinical study was initiated to determine whether patients with cardiovascular disease could find a ribose benefit at lower, safer doses. Patients with known chronic coronary artery disease with stable angina pectoris and chronic heart failure, class II and III (New York Classification, NYHA) were selected for the study. […] All patients were being treated with nitrates, molsidim and beta blockers. Three patients were also on diltiazem and an additional three on trapidil. Medications were not altered during the study. Exclusion criteria included patients <18 years of age, those with severe concurrent disease (renal failure, diabetes mellitus, neoplasia), evidence of hyperthyroidism and inability to follow the protocol. The study consisted of two treatment periods, three weeks in duration. Initially, either ribose or placebo (dextrose) was administered three times a day with meals. Five grams of either ribose of or placebo was dissolved in approximately eight ounces of fluid shortly before administration. Following the initial treatment period, the patients were given no ribose or placebo treatment for one week as a washout period. […] Rate pressure product (RPP) was calculated using systolic blood pressure times heart rate and expressed in RPP units.

[3] = system: patients with cardiovascular disease; athletes; settings: cited from earlier work
[4] = system: patients with chronic coronary artery disease with stable angina pectoris and chronic heart failure, class II and III; test: Transthoracic echocardiography in double-blinded, randomized, crossover clinical study of ribose vs placebo; assay type: in vivo, human; settings: oral
Text: (§1) A double-blinded, randomized, crossover clinical study was initiated to determine whether patients with cardiovascular disease could find a ribose benefit at lower, safer doses. Patients with known chronic coronary artery disease with stable angina pectoris and chronic heart failure, class II and III (New York Classification, NYHA) were selected for the study. […] All patients were being treated with nitrates, molsidim and beta blockers. Three patients were also on diltiazem and an additional three on trapidil. Medications were not altered during the study. Exclusion criteria included patients <18 years of age, those with severe concurrent disease (renal failure, diabetes mellitus, neoplasia), evidence of hyperthyroidism and inability to follow the protocol.
The study consisted of two treatment periods, three weeks in duration. Initially, either ribose or placebo (dextrose) was administered three times a day with meals. Five grams of either ribose of or placebo was dissolved in approximately eight ounces of fluid shortly before administration. Following the initial treatment period, the patients were given no ribose or placebo treatment for one week as a washout period. The patients were then given the alternate treatment for three weeks for the crossover phase of the study.
Measured objectives parameters of systolic and diastolic function were assessed with transthoracic echocardiography. Subjectively, quality of life using the SF36 form, and physical function (exercise tolerance) were assessed. All of the above parameters were assessed at pre- and post-treatment in both arms of the study.
Each echocardiographic assessment was performed by the same clinical individual and accumulated data were analyzed by two cardiologists in a blinded manner, with a consensus establishing a final result. All studies were conducted with commercially available equipment (System V, GE, Norway). To allow off-line quantitative analysis of the echocardiographic data, studies were recorded on videotape with selected cine-loops and velocity spectra digitally transferred to a Macintosh G4 computer (Apple Computers, CA) for subsequent analysis. Software provided by the manufacturer (Echopac®, GE, Norway) was used for data evaluation.
Each echocardiographic assessment was performed transthoracically and a 1.7/3.4 MHZ harmonic transducer was used with the patient examined in the left lateral decubitus position. A one-lead electrocardiogram was recorded continuously during echocardiographic assessment. The M-Mode left atrial dimension was measured at end-systole in the parasternal long-axis view and left ventricular ejection fraction was determined according to the recommendations of the North American Society of Echocardiography. In addition, left atrial volume was determined using the Simpson's rule in the 4 chamber view. Transmitral Doppler inflow velocities were recorded from the apical four-chamber view with the sample volume positioned between the tips of the mitral leaflets during quiet respiration.
The parameters derived from the transmitral velocity spectra were: peak velocity of the early (E) and atrial filling (A) waves, the corresponding velocity time integrals (VTIE and VTIA and the percentage of atrial contribution to total left ventricular filling. The deceleration slope of the E wave was also measured. The percentage of atrial contribution to total left ventricular filling was determined by dividing the VTIA by the total diastolic velocity time integral. The results of five consecutive heart cycles were averaged in each patient to obtain a justified value.
Analysis of variance for repeated measures (ANOVA) was used for the analysis of serial changes of continuous parameters within and between the randomized, assigned treatment arms, i.e. ribose vs placebo. Further comparison were subject to Bonferroni correction. In all cases, a p value s 0.05 was considered statistically significant.

[5] = system: patients with chronic coronary artery disease and chronic heart failure; test: Quality of life (SF 36 form) and physical function in the crossover study; assay type: in vivo, human; settings: oral, 5 g three times a day for three weeks
Text: as §1, with “protocol. The study consisted of two treatment periods, three weeks in duration. Initially, either ribose or placebo (dextrose) was administered three times a day with meals. […] Measured objectives parameters of systolic and diastolic function were assessed with transthoracic echocardiography. Subjectively, quality of life using the SF36 form, and physical function (exercise tolerance) were assessed. All of the above parameters were assessed at pre- and post-treatment in both arms of the study. Quality of life was assessed in each patient using the SF 36 form. […]” for “protocol.”

[6] = system: patients with heart failure; patients with angina; settings: cited from earlier work
plasma homocysteine = settings: cited from earlier work
congestive heart failure = settings: 4 weeks of supplementation (Azuma et al 1983); cited from earlier work
[7] = 5 g three times a day for three weeks
[8] = 5 g three times a day for three weeks, p ≦ .005 vs dextrose placebo

In the case of `O=C[C@H](O)[C@H](O)[C@H](O)CO` [Ribose, D-Ribose], the “pressure-lowering effects in further studies” value ([1]; further studies, expected) is reported as “expected to confirm the pressure-lowering effects”, the “blood pressure after ribose” value ([1]; one subject, borderline values of 130/90 before, 5-10 grams per day daily) is reported as 108/78 and the “mean maximal attained exercise level” value [2] is reported as “not changed”. The “benefit to patients with cardiovascular disease” value ([3]; 60 grams daily in four 15 gram doses for three days (Pliml 1992)) was “benefited”, the side effects ([3]; 60 grams daily in four 15 gram doses) was “hypoglycemia with concomitant dizziness, nausea and sweating; also recorded: abdominal distress and diarrhea” and the “treadmill performance of angina patients” value ([3]; orally administered high doses (Pliml et al 1992)) was “increased”. For the same molecule, the “power output of athletes on exercise bikes” value ([3]; supplemental ribose (U.S. Pat. No. 6,159,942)) was “greater”, the “atrial contribution to left ventricular filling as compared to placebo” value [4, 7] was “higher” and the “deceleration time of the E wave as compared to placebo” value [4, 7] was “significant shorter”. The “ejection fraction (EF)” value [4, 7] was 51.0 ± 7.3%, the “left atria volume as compared to placebo” value [4, 7] was “significantly smaller” and the “atrial contribution (Ac)” value ([4]; 5 g three times a day for three weeks, p < .01 vs dextrose placebo) was 45.3 ± 9.2 &. For the same molecule, the “deceleration time of the E wave (Edc)” value [4, 8] was 193.5 ± 45.9 ms, the “left ventricular systolic volume (LVVs)” value [4, 8] was 64.4 ± 24.8 mL and the “stroke volume index (SVI)” value [4, 8] was 2.63 ± .57 ml/body mass index. For the same molecule, the diastolic cardiac function ([4]; relatively short term, severe coronary artery disease and congestive heart failure) was “significantly improved”, the “overall score of the quality of life index” value ([5]; SF 36 form) was “significant improvement; also recorded: enhanced” and the physical function [5] was “significant improvement”.

For `N=C(N)NCCC[C@H](N)C(=O)O` [arginine, L-arginine], the “benefits for patients with heart failure” value ([6]; 5.6 to 12.6 g/day supplemental (Rector et al 1996)) is given as “increased blood flow, increased distances in a 6-minute walk test, and improved arterial compliance” and the “exercise capacity in patients with angina” value ([6]; oral, 6 g/day for 3 days (Ceremuzynski et al 1997)) is given as “improved”.

For `Nc1nc2ncc(CNc3ccc(C(=O)N[C@@H](CCC(=O)O)C(=O)O)cc3)nc2c(=O)[nH]1` [Folic acid], the “reduction of plasma homocysteine levels” value (plasma homocysteine; 250 pg/d dose (Brouwer et al. 1999)) is given as 11%, the “reduction of plasma homocysteine levels” value (plasma homocysteine; 300 pg/d in healthy individuals over 5 weeks (Mansoor)) is given as 20% and the “reduction of plasma homocysteine” value (plasma homocysteine; 300 pg/day plus 120 mg/day of vitamin B6 (Mansoor)) is given as 32%. For the same molecule, the “reduction of plasma homocysteine levels” value (plasma homocysteine; 500 pg/d dose (Brouwer et al. 1999)) was 22%.

For `NCCS(=O)(=O)O` [taurine], the “dyspnea, palpitation, crackles, edema, and New York Heart Association functional class” value (congestive heart failure) is given as “highly significant improvement”.
